Experimental data published in US8017828B2, “Utilization of rare sugars in plant or microorganism” (Shikoku Research Institute Incorporated, priority 2004, dated 2011).

Legend:
[1] = tested on: Fusarium oxysporum, Glomerella cingulata, Verticillium dahliae and Botrytlis cinerea; assay: Mycelial elongation of plant pathogenic bacteria on agar with rare sugar; format: cell-based; conditions: 0.05% (w/v) in agar medium, 23° C., 7 days
Protocol: By using as targets, Fusarium oxysporum, Glomerella cingulata, Verticillium dahliae and Botrytlis cinerea, which are typical plant pathogenic bacteria, an effect of a rare sugar on mycelial elongation was examined.
As the test bacterial strains, IFO 31213 strain, IFO 6425 strain, IFO 9765 strain and IFO 9760 strain were used.
After the cultivation, the length of the extending mycelium was measured.

[2] = tested on: Aspergillus niger, Cladosporium cladosporioides and Penicillium chrysogenum; assay: Mycelial elongation of filamentous fungi on agar with rare sugar; format: cell-based; conditions: 0.05% (w/v) in agar medium, 25° C., 4 days
Protocol: By using as targets, Aspergillus niger, Cladosporium cladosporioides and Penicillium chrysogenum, which are typical filamentous fungi and generally seen in a living environment, an effect of a rare sugar on mycelial elongation was examined.
As the test fungal strains, NBRC 4066 strain, NBRC 4459 strain and NBRC 4626 strain were used.
Each test fungal strain was cultured on a potato dextrose agar medium at 25° C. for 7 days, and one in which the mycelium extended over the surface of the dish was pushed out along with the agar medium in such a manner that the agar medium was in a disc form with a diameter of 1.1 cm, which was placed at the center of a dish filled with an agar medium (1% Bacto agar) supplemented with any of a variety of rare sugars (allitol, D-altrose, L-mannose, L-galactose, D-tagatose, D-sorbose, D-psicose, D-allose, D-glucose and D-fructose) at 0.05% (w/v) and cultured at 25° C. for 4 days. After the cultivation, the length of the mycelium extending on the surface of the culture medium was measured. Two culture media were prepared for each test plot, and the mycelial length represents the average thereof.

chitinase gene = assay: Northern blotting of chitinase gene expression in sprayed cut leaves of rough lemon; format: in vivo; conditions: 0.5 mM sprayed on cut leaves, 2 to 48 hours
Protocol: Cut leaves of rough lemon were treated by spraying each of 0.5 mM L-psicose, L- & D-tagatose and D-sorbose thereon and were let stand for 2, 4, 6, 12, 24 and 48 hours at 24° C. under the dark condition in a moist chamber. Then, from the treated leaves, total RNA was extracted and the expression of genes of lipoxygenase and chitinase was analyzed by Northern blotting. The assays and analyses were repeated at least 3 times in all the treated plots, and equivalent results were obtained.

[3] = tested on: Brassica rapa var. amplexicaulis (variety: “Haru Ichiban”); assay: Foliar spraying of sugar on Brassica rapa var. amplexicaulis; format: in vivo; conditions: 0.5% solution sprayed
Description: Brassica rapa var. amplexicaulis is a vegetable in the Brassica family, and flower buds are harvested and used. As the same species of vegetables, broccoli, cauliflower and the like are exemplified, which are important horticultural crops. As for such a vegetable, development of flower buds has a large effect on the crop yield. Therefore, during the house cultivation of Brassica rapa var. amplexicaulis (variety: “Haru Ichiban”), foliar spraying of a sugar solution at a concentration of 0.5% (w/v) was carried out and effects on the growth and the development of flower buds were examined. The seeds of Brassica rapa var. amplexicaulis were sown in a 128-cell tray on Oct. 23, 2003 and raised for about 20 days. Then, the raised seedlings were transplanted for permanent planting with a planting distance of 40 cm on two rows with an inter row space of 50 cm in separate beds filled with soil for cultivation “Hana to Yasai no Tsuchi (garden soil for flowers and vegetables)” (Kurokawa Shubyo En) on Nov. 12, 2003. The cultivation was carried out by a simple fertigation system, and irrigation was carried out for 1 hour on a daily basis with a 2,000-fold dilution of Hyponex through an irrigation tube. The cultivation was carried out in a vinyl house without heating with side windows open. From Dec. 18, 2003, water or a 0.5% (w/v) sugar solution was sprayed onto the whole plant on a three times weekly basis. As for the types of sugars, D-glucose, D-fructose and D-psicose were used and five plants were cultivated for each test plot. On Feb. 23, 2004, three plants of medium size were harvested and a survey was carried out. The survey items were plant length, stem diameter, number of lateral buds, terminal bud weight, total weight of lateral buds and the like.

[4] = tested on: Pythium ultimum IFO 32426 strain; assay: Oospore formation of Pythium ultimum in sugar solution; format: cell-based; conditions: 0.05% (w/v) sugar solution, 23° C., 4 days
Protocol: With regard to Pythium ultimum that causes damping-off of spinach and the like, an effect of a rare sugar on oospore formation was examined.
First, as the Pythium ultimum, IFO 32426 strain was used, and static culture thereof was carried out with 200 ml of V8 medium at 23° C. for 1 week. The resulting mycelial mat was well washed with sterile water and divided into 16 equal parts with forceps. This mycerial body was disentangled uniformly to form a small piece and immersed in 20 ml of a sugar solution at a concentration of 0.05% (w/v) and let stand at 23° C. for 4 days. […] Further, the same experiment was carried out using Pythium zingiberum IFO 30817 strain.

Salsola komarovii = assay: Seed germination, short-time and continuous treatment (Experiment 2); format: in vivo; conditions: immersed in 1% solution for 24 hours, in the end; DW 28%
Protocol: In order to clarify an effect of a short-time treatment, 50 seeds of Salsola komarovii, tomato (Home Momotaro) and sunny lettuce (Red Wave), and 20 seeds of morning glory (Tairin Zaki Kongo) were immersed in any of deionized water, 1% D-psicose, 1% D-allose and 1% L-galactose for 24 hours (25° C., dark), respectively, then, they were lightly washed with deionized water. Then, the seeds were sown in a dish with a diameter of 9 cm having a filter paper placed therein, and germinated under the same condition by poring 5 to 10 ml of deionized water therein. Further, for the comparison, a continuous treatment with 1% D-psicose was carried out in accordance with the same procedure.

[5] = tested on: Arabidopsis thaliana Lan dsberg erecta (LER); assay: Germination of Arabidopsis thaliana with 8 ketoses; format: in vivo; conditions: 100 mM aqueous solution
Protocol: An effect of 8 types of ketoses on germination of Arabidopsis thaliana LER series which was an experimental plant was examined.
Two sheets of filter paper were placed in a dish with a diameter of 3.5 cm, and 30 seeds of Arabidopsis thaliana Lan dsberg erecta (LER) were sown per dish, and 0.5 mL of a treatment liquid was poured therein. Then, the dishes were placed in an environment control chamber under the condition of a constant temperature of 25° C. and 24-hour day length (fluorescent lamp, 70 μmol/m^2/s). After the sowing, a survey was carried out with regard to the number of seeds that germinated at 24-hour interval. As the treatment liquid, 100 mM, 10 mM and 1 mM aqueous solutions of any of D-fructose, D-psicose, D-tagatose, D-sorbose, L-fructose, L-psicose, L-tagatose and L-sorbose, and distilled water were used. The procedure was repeated three times for the respective treatment liquids.

[6] = tested on: cherry tomato plant “mini carol”; assay: Hydroponic growth of cherry tomato with 0.05 or 0.5 mM sugar, 10 days; format: in vivo; conditions: 0.5 mM
Protocol: Subsequently, a cherry tomato plant “mini carol” was transplanted for permanent planting to a hydroponic apparatus, and a total of 7 treated plots in which a plot without addition (control plot) was added to 6 treated plots with the use of a nutrient solution supplemented with 0.05 mM or 0.5 mM D-psicose, D-fructose or mannitol were prepared. A survey was carried out with regard to the growth at 10 days after the permanent planting. […] The stem diameter was the smallest in the case of 0.5 mM D-psicose. The number of leaves was the smallest in the case of 0.5 mM D-psicose and 0.5 mM mannitol. The root length was the smallest in the case of 0.5 mM psicose.

[7] = tested on: Fusarium oxysporum (IFO 31213 strain); format: in vivo, tomato plant (variety: “House Momotaro”)
Protocol: By using a tomato plant and a strain of Fusarium oxysporum, which is a typical pathogenic bacterium of tomato, an effect of D-psicose during infection in a stage of raising seedlings thereof was examined.
To be more specific, seeds of a tomato plant (variety: “House Momotaro”) were subjected to an immersion treatment by immersing them in a 0.01% (w/v) D-psicose solution or a 0.007% (w/v) probenazole solution for 15 minutes while stirring slowly, followed by air-drying on sterile gauze, and then used as treated seeds. In the medium culture for raising seedlings (pete:pearlite:vermiculite=2:1:1), 0.01% (w/v) D-psicose or 0.007% (w/v) probenazole was mixed, and the soil was placed in black polypot plant containers with a diameter of 9 cm, and then, 4 seeds of the above treated seeds were sown in each pot. The seeds (20 seeds in total) were sown in 5 pots for each test plot. After sowing, the pots were placed in a growth chamber at 23° C. and 5,000 Lux (12-hour day length), and raising of seedlings was initiated. At 1 month and 2 months after the initiation of raising of seedlings, a suspension of mycelium of Fusarium oxysporum (IFO 31213 strain) was inoculated around the roots, whereby infection with Fusarium oxysporum was caused. After the inoculation of Fusarium oxysporum, the temperature was raised to 30° C., and cultivation was continued. At about 4 months after sowing, a survey was carried out with regard to the survival rate of plants, the conditions of browning of vascular bundles and roots, the stem diameter and the like.

`O=C[C@@H](O)[C@H](O)[C@H](O)[C@H](O)CO` [D-altrose] was tested. Which “inhibitory effect on mycelial elongation” value [1] did it give?
The value was “the highest inhibitory effect”.

What about the “effect on mycelial elongation” value [2] of the same molecule?
The value was “have an effect of inhibiting mycelial elongation”.

How did the “induction of the expression of chitinase gene” value (chitinase gene) turn out when `O=C(CO)[C@@H](O)[C@@H](O)[C@H](O)CO` [D-tagatose] was run?
The value was “more strongly than D-psicose”.

How did the Terminal bud weight ([3]; control (water) 3.0) turn out when `O=C[C@@H](O)[C@H](O)[C@H](O)[C@@H](O)CO` [L-galactose] was run?
The Terminal bud weight was 9.6 g.

What about the Stem diameter ([3]; control (water) 22.8) of the same molecule?
The Stem diameter was 21.7 mm.

What about the “Number of lateral buds” value ([3]; control (water) 32.3) of the same molecule?
The value was 48.3.

What about the Plant length ([3]; control (water) 49.3) of the same molecule?
Its Plant length is 52.7 cm.

What about the “Total weight of lateral buds” value ([3]; control (water) 235.3) of the same molecule?
The value was 250.6 g.

And the oospore formation [4]?
Its oospore formation is “inhibited”.

And the germination rate (Salsola komarovii)?
Its germination rate is 34%.

What about the “effect on mycelial elongation” value [2] of the same molecule?
Its value is “have an effect of inhibiting mycelial elongation”.

How did the inhibition of germination [5] turn out when `O=C(CO)[C@@H](O)[C@@H](O)[C@@H](O)CO` [L-psicose] was run?
The inhibition of germination was “not clearly observed”.

`OC[C@@H](O)[C@@H](O)[C@H](O)[C@H](O)CO` [mannitol, reference compound] was tested. Which “number of leaves, rank among 7 treated plots” value [6] did it give?
The value was “the smallest”.

Which results are given for `C=CCOC1=NS(=O)(=O)c2ccccc21` [probenazole, reference compound]?
Vascular bundle browning ratio ([7]; seed immersion (0.01% D-psicose or 0.007% probenazole), no seed treatment 25%): 5%; Stem diameter ([7]; seed immersion treatment): increased
